# In patent US11236092B2, “Spiro-condensed pyrrolidine derivatives as deubiquitylating enzymes (DUB) inhibitors” (MISSION THERAPEUTICS LIMITED, priority 2016, dated 2022):
# Biological target: Cezanne 1 (Homo sapiens (Human), UniProt Q6GQQ9)
# Assay: Cezanne 1 biochemical IC50 assay (fluorescence polarisation)
# Conditions: FLAG-Cezanne 1; enzyme and compound incubated 30 min at room temp; 50 nM TAMRA labelled peptide linked to ubiquitin as substrate; read after 2 hr; read-out: IC50 range
# Experimental: Expression and Purification of Cezanne 1
# The Cezanne 1 construct was PCR amplified and cloned into a pFLAG-CMV-6c vector (Sigma-Aldrich) with an N-terminal FLAG tag. HEK293T cells were transfected with FLAG-Cezanne 1 using TransIT-LT1 transfection reagent (Mirus) according to the manufacturer's instructions. Cells were harvested 48 hours after transfection. […] The resin was washed two times with low salt buffer and one time with high salt buffer (20 mM Tris, pH 7.5, 500 mM NaCl, 0.5 mM EDTA, 5 mM beta-mercaptoethanol, protease inhibitors (complete mini, Roche) and phosphatase inhibitors (PhosSTOP mini, Roche). To elute the bound Cezanne 1, elution buffer (10 mM Tris, pH 7.5, 150 mM NaCl, 0.5 mM EDTA, 10% glycerol, 0.5% NP40, 5 mM beta-mercaptoethanol, 0.15 mg/ml 3X FLAG peptide (Sigma-Aldrich)) was added to the resin and incubated at 4° C. for 2.5 hours while rotating. The resin was centrifuged at 4000 rpm for 30 seconds, and the supernatant containing purified FLAG-Cezanne 1 was removed and stored at −80° C.
# Cezanne 1 Biochemical IC50 Assay
# Dilution plates were prepared at 21 times the final concentration (2100 μM for a final concentration of 100 μM) in 50% DMSO in a 96-well polypropylene V-bottom plate (Greiner #651201). A typical 8-point dilution series to be 100, 30, 10, 3, 1, 0.3, 0.1, 0.03 μM final. Reactions were performed in duplicate in black 384 well plates (small volume, Greiner 784076) in a final reaction volume of 21 μl. Either 1 μl of 50% DMSO or diluted compound was added to the plate. Cezanne 1 was diluted in reaction buffer (40 mM Tris, pH 7.5, 0.005% Tween 20, 0.5 mg/ml BSA, 5 mM—beta-mercaptoethanol) to the equivalent of 0.005 μl/well and 10 μl of diluted Cezanne 1 was added to the compound. Enzyme and compound were incubated for 30 min at room temp. Reactions were initiated by the addition of 50 nM of TAMRA labelled peptide linked to ubiquitin via an iso-peptide bond as fluorescence polarisation substrate. Reactions were read immediately after addition of substrate and following a 2 hr incubation at room temperature. Readings were performed on a Pherastar Plus (BMG Labtech). λ Excitation 540 nm; λ Emission 590 nm.
# Cezanne 1, sequence (Q6GQQ9 whole entry): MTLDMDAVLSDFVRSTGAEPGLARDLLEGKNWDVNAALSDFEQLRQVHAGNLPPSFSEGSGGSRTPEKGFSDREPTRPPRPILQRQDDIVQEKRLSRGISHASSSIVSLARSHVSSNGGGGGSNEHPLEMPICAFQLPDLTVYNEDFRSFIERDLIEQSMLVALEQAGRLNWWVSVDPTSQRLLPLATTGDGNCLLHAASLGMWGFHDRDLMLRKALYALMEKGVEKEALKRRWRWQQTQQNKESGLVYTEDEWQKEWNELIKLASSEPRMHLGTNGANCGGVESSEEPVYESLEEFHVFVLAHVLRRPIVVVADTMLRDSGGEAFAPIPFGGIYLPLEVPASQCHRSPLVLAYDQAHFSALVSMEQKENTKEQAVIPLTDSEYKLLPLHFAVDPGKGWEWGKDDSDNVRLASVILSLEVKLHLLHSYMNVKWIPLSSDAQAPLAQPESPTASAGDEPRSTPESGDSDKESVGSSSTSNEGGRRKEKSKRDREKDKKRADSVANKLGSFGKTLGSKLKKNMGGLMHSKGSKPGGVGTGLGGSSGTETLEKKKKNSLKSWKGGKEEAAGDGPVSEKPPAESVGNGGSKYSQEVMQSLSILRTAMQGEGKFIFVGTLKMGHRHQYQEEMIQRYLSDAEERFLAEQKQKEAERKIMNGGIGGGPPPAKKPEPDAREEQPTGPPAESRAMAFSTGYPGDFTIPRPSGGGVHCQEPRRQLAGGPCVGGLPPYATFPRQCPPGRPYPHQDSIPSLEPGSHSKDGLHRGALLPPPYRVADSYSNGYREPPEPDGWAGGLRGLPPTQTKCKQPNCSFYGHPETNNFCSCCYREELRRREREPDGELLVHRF
row,Substance,IC50 [nM]
1,"2′-Oxo-7′-(4-phenoxyphenyl)-l′,4′-dihydro-2′H-spiro┌pyrrolidine-3,3′-quinoline┐-1-carbonitrile [Example 11]",1000 to 10000
2,"3-(1-Cyano-2′-oxo-1′4′-dihydro-2′H-spiro┌pyrrolidine-3,3′-quinolin┐-7′-yl)-N,N-dimethylbenzamide [Example 30]",100 to 1000
3,"7′-(1-Methyl-1H-pyrazol-5-yl)-2′-oxo-1′,4′-dihydro-2′H-spiro┌pyrrolidine-3,3′-quinoline┐-1-carbonitrile [Example 10]",1000 to 10000
4,"7′-(2-Methylpyridin-4-yl)-2′-oxo-1′,4′-dihydro-2′H-spiro┌pyrrolidine-3,3′-quinoline┐-1-carbonitrile [Example 34]",1000 to 10000
5,"7′-(3-Cyanophenyl)-2′-oxo-l′,4′-dihydro-2′H-spiro┌pyrrolidine-3,3′-quinoline┐-1-carbonitrile [Example 9]",1000 to 10000
